What was measured:
[1] = The drug is tested on Z-021 corresponding to metagenome with ENA study accession number: PRJEB37062 and ENA sample accession number: ERS12561820 for biotransformation under anaerobic condition. The drug concentrations were measured over 9 timepoints collected between 0 and 24 hours of incubation by liquid-chromatography-coupled mass spectrometry (LC–MS); conditions: 2 µM
[2] = (§1) The drug is tested on Z-006 corresponding to mouse gut metagenome with ENA study accession number: PRJEB37062 and ENA sample accession number: ERS12561806 for biotransformation under anaerobic condition. The drug concentrations were measured over 9 timepoints collected between 0 and 24 hours of incubation by liquid-chromatography-coupled mass spectrometry (LC–MS); conditions: 2 µM
[3] = human gut metagenome, 24 h, 2 µM
[4] = human gut metagenome, 24 h, 2 µM; remark: listed apart in the source
[5] = human gut metagenome, 24 h, 2 µM; remark: listed apart in the source
[6] = human gut metagenome, 24 h, 2 µM; remark: listed apart in the source
[7] = as §1, with “Z-028” for “Z-006”, “ERS12561827” for “ERS12561806”; conditions: 2 µM
[8] = as §1, with “Z-003” for “Z-006”, “pig” for “mouse”, “ERS12561803” for “ERS12561806”; conditions: 2 µM
[9] = as §1, with “Z-013” for “Z-006”, “rabbit” for “mouse”, “ERS12561813” for “ERS12561806”; conditions: 2 µM
[10] = as §1, with “WLS-069” for “Z-006”, “human” for “mouse”, “ERS12561748” for “ERS12561806”; conditions: 2 µM
[11] = human gut metagenome, 24 h, 2 µM; remark: listed apart in the source
[12] = as §1, with “WLS-006” for “Z-006”, “human” for “mouse”, “ERS12561741” for “ERS12561806”; conditions: 2 µM
[13] = human gut metagenome, 24 h, 2 µM; remark: listed apart in the source
[14] = human gut metagenome, 24 h, 2 µM; remark: listed apart in the source
[15] = human gut metagenome, 24 h, 2 µM; remark: listed apart in the source
[16] = as §1, with “WLS-010” for “Z-006”, “human” for “mouse”, “ERS12561743” for “ERS12561806”; conditions: 2 µM
[17] = as §1, with “Z-020” for “Z-006”, “rabbit” for “mouse”, “ERS12561819” for “ERS12561806”; conditions: 2 µM
[18] = as §1, with “Z-025” for “Z-006”, “rabbit” for “mouse”, “ERS12561824” for “ERS12561806”; conditions: 2 µM
[19] = human gut metagenome, 24 h, 2 µM; remark: listed apart in the source
[20] = as §1, with “WLS-098” for “Z-006”, “human” for “mouse”, “ERS12561754” for “ERS12561806”; conditions: 2 µM
Also: call rule not given here.

| SMILES | Bacterial Biotransformation [1] | Bacterial Biotransformation [2] | Bacterial Biotransformation [3] | Bacterial Biotransformation [4] | Bacterial Biotransformation [5] | Bacterial Biotransformation [6] | Bacterial Biotransformation [7] | Bacterial Biotransformation [8] | Bacterial Biotransformation [9] | Bacterial Biotransformation [10] | Bacterial Biotransformation [11] | Bacterial Biotransformation [12] | Bacterial Biotransformation [13] | Bacterial Biotransformation [14] | Bacterial Biotransformation [15] | Bacterial Biotransformation [16] | Bacterial Biotransformation [17] | Bacterial Biotransformation [18] | Bacterial Biotransformation [19] | Bacterial Biotransformation [20] |
| --- | --- | --- | --- | --- | --- | --- | --- | --- | --- | --- | --- | --- | --- | --- | --- | --- | --- | --- | --- | --- |
| Cc1ccnc2c1NC(=O)c1cccnc1N2C1CC1 [NEVIRAPINE] | Compound NOT metabolized | Compound NOT metabolized | Compound NOT metabolized | Compound NOT metabolized | Compound NOT metabolized | Compound NOT metabolized | Compound NOT metabolized | Compound NOT metabolized | Compound NOT metabolized | Compound NOT metabolized | Compound NOT metabolized | Compound NOT metabolized | Compound NOT metabolized | Compound NOT metabolized | Compound metabolized | Compound NOT metabolized | Compound NOT metabolized | Compound NOT metabolized | Compound NOT metabolized | Compound metabolized |
| CO[C@]12C[C@@H](COC(=O)c3cncc(Br)c3)CN(C)[C@@H]1Cc1cn(C)c3cccc2c13 [NICERGOLINE] | Compound metabolized | Compound metabolized | Compound NOT metabolized | Compound NOT metabolized | Compound NOT metabolized | Compound NOT metabolized | Compound metabolized | Compound metabolized | Compound metabolized | Compound NOT metabolized | Compound NOT metabolized | Compound metabolized | Compound NOT metabolized | Compound NOT metabolized | Compound NOT metabolized | Compound metabolized | Compound NOT metabolized | Compound metabolized | Compound NOT metabolized | Compound metabolized |
| COc1ccc2c(c1OC)C(=O)O[C@@H]2[C@H]1c2c(cc3c(c2OC)OCO3)CCN1C [NOSCAPINE] | Compound NOT metabolized | Compound NOT metabolized | Compound metabolized | Compound metabolized | Compound NOT metabolized | Compound NOT metabolized | Compound NOT metabolized | Compound metabolized | Compound NOT metabolized | Compound metabolized | Compound NOT metabolized | Compound metabolized | Compound metabolized | Compound NOT metabolized | Compound NOT metabolized | Compound NOT metabolized | Compound metabolized | Compound NOT metabolized | Compound metabolized | Compound metabolized |

Further lines, results first:

| Bacterial Biotransformation [1] | Bacterial Biotransformation [2] | Bacterial Biotransformation [3] | Bacterial Biotransformation [4] | Bacterial Biotransformation [5] | Bacterial Biotransformation [6] | Bacterial Biotransformation [7] | Bacterial Biotransformation [8] | Bacterial Biotransformation [9] | Bacterial Biotransformation [10] | Bacterial Biotransformation [11] | Bacterial Biotransformation [12] | Bacterial Biotransformation [13] | Bacterial Biotransformation [14] | Bacterial Biotransformation [15] | Bacterial Biotransformation [16] | Bacterial Biotransformation [17] | Bacterial Biotransformation [18] | Bacterial Biotransformation [19] | Bacterial Biotransformation [20] | SMILES |
| --- | --- | --- | --- | --- | --- | --- | --- | --- | --- | --- | --- | --- | --- | --- | --- | --- | --- | --- | --- | --- |
| Compound metabolized | Compound metabolized | Compound metabolized | Compound metabolized | Compound metabolized | Compound metabolized | Compound metabolized | Compound metabolized | Compound NOT metabolized | Compound metabolized | Compound NOT metabolized | Compound metabolized | Compound metabolized | Compound metabolized | Compound metabolized | Compound metabolized | Compound metabolized | Compound NOT metabolized | Compound metabolized | Compound metabolized | CCN(CC)CCOC(=O)C(Cc1cccc2ccccc12)CC1CCCO1.O=C(O)C(=O)O (stereo not given) [NAFRONYL OXALATE] |
| Compound NOT metabolized | Compound NOT metabolized | Compound NOT metabolized | Compound NOT metabolized | Compound NOT metabolized | Compound NOT metabolized | Compound NOT metabolized | Compound NOT metabolized | Compound NOT metabolized | Compound metabolized | Compound NOT metabolized | Compound metabolized | Compound NOT metabolized | Compound NOT metabolized | Compound metabolized | Compound metabolized | Compound NOT metabolized | Compound NOT metabolized | Compound metabolized | Compound metabolized | CCc1nn(CCCN2CCN(c3cccc(Cl)c3)CC2)c(=O)n1CCOc1ccccc1 [NEFAZODONE] |
| Compound NOT metabolized | Compound NOT metabolized | Compound metabolized | Compound metabolized | Compound NOT metabolized | Compound metabolized | Compound NOT metabolized | Compound NOT metabolized | Compound NOT metabolized | Compound NOT metabolized | Compound NOT metabolized | Compound metabolized | Compound NOT metabolized | Compound NOT metabolized | Compound metabolized | Compound metabolized | Compound NOT metabolized | Compound NOT metabolized | Compound metabolized | Compound metabolized | CN1CCOC(c2ccccc2)c2ccccc2C1 (stereo not given) [NEFOPAM] |
| Compound metabolized | Compound NOT metabolized | Compound NOT metabolized | Compound metabolized | Compound metabolized | Compound metabolized | Compound NOT metabolized | Compound metabolized | Compound NOT metabolized | Compound metabolized | Compound metabolized | Compound metabolized | Compound metabolized | Compound metabolized | Compound metabolized | Compound metabolized | Compound metabolized | Compound NOT metabolized | Compound metabolized | Compound metabolized | CCN(CC)CC#CCOC(=O)C(O)(c1ccccc1)C1CCCCC1.Cl (stereo not given) [OXYBUTYNIN CHLORIDE] |
| Compound metabolized | Compound NOT metabolized | Compound metabolized | Compound metabolized | Compound metabolized | Compound NOT metabolized | Compound NOT metabolized | Compound metabolized | Compound NOT metabolized | Compound metabolized | Compound NOT metabolized | Compound NOT metabolized | Compound NOT metabolized | Compound NOT metabolized | Compound metabolized | Compound metabolized | Compound NOT metabolized | Compound NOT metabolized | Compound NOT metabolized | Compound metabolized | Fc1ccc([C@@H]2CCNC[C@H]2COc2ccc3c(c2)OCO3)cc1 [PAROXETINE] |
